Columns and labels:
human SPPL2a [1] = target: T1, human SPPL2a (Homo sapiens, UniProt Q8TCT8); assay: Sppl2a TL (translocation) imaging assay in U-2 OS cells; type: cell-based; design: expressed in transfected cells; conditions: U-2 OS cells expressing human SPPL2a and EGFP-TNFα(aa1-76) NTF substrate; 24 h
T1 sequence (Q8TCT8 26-520): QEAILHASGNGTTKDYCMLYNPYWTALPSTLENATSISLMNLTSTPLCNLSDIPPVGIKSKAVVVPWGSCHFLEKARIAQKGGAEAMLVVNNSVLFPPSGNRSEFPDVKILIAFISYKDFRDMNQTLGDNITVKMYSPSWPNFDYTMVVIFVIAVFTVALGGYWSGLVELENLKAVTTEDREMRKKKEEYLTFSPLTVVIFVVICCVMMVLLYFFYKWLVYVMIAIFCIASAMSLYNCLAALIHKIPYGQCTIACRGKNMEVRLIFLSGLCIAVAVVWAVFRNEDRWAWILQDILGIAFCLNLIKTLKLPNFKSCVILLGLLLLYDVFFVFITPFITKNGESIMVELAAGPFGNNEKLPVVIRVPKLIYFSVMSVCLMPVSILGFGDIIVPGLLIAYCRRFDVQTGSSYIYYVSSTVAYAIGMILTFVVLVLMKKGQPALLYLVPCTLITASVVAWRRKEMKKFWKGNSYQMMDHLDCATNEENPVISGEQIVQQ
Procedure, shortened: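 U-2 OS cells stably expressing human SPPL2a plus doxycycline-induced EGFP-TNFα(aa1-76) NTF, treated 24 h at 37 °C with inhibitor (100 μM–1 nM, 11 points, 0.9% DMSO, 5 μg/mL doxycycline). Imaging of nuclear-minus-cytoplasmic EGFP intensity; % inhibition versus 0.5 μM LY-411,575 and DMSO, IC50 by nonlinear regression; CC50 from cell count.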

human SPPL2a [2] = target: T1, human SPPL2a; assay: Sppl2a RGA (reporter gene assay) in HEK293 cells; type: cell-based; design: expressed in transfected cells; host or cells: HEK293 (transient); conditions: NT-TNF-VP16-Gal4 substrate, Gal4-luciferase reporter, 24 h
Procedure, shortened: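 Cleavage of a membrane-bound TNF N-terminal–VP16-Gal4 substrate drives Gal4-luciferase expression in transiently transfected HEK293 cells also expressing human SPPL2a. Compounds incubated 24 h, 37 °C, 5% CO2; luminescence read, normalized and plotted against concentration for IC50.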

IC50 (human SPPL2a [1]) [nM] | IC50 (human SPPL2a [2]) [nM] | SMILES
3 | 3 | C[C@H](CC(=O)Nc1sc(-c2ccc(C(F)(F)F)nc2)nc1Cl)C(=O)N[C@@H]1C(=O)N2CCCN2Cc2ccccc21 [Example 108, (R)-N^4-(4-Chloro-2-(6-(trifluoromethyl)pyridin-3-yl)thiazol-5-yl)-2-methyl-N^1-((S)-11-oxo-2,3,10,11-tetrahydro-1H,5H-benzo[d]pyrazolo [1,2-a][1,2]diazepin-10-yl)succinamide]
450 | 180 | Cc1cnoc1C(=O)NC[C@H](C(=O)N[C@@H]1C(=O)N2CCCN2C(=O)c2ccccc21)C(F)(F)F [Example 2, N—((R)-2-(((S)-5,11-dioxo-2,3,10,11-tetrahydro-1H,5H-benzo[d]pyrazolo[1,2-a][1,2]diazepin-10-yl)carbamoyl)-3,3,3-trifluoropropyl)-4-methylisoxazole-5-carboxamide]
12 | 23 | C[C@H](CC(=O)Nc1sc(-c2cnn(C3COC3)c2)nc1Cl)C(=O)N[C@@H]1C(=O)N2CCCN2Cc2ccccc21 [Example 95, (R)-N^4-(4-Chloro-2-(1-(oxetan-3-yl)-1H-pyrazol-4-yl)thiazol-5-yl)-2-methyl-N^1-((S)-11-oxo-2,3,10,11-tetrahydro-1H,5H-benzo[d]pyrazolo [1,2-a][1,2]diazepin-10-yl)succinamide]
332 | 148 | CC[C@H](CNC(=O)c1scnc1C(F)(F)F)C(=O)N[C@@H]1C(=O)N2CC3(CC3)CN2C(=O)c2ccccc21 [Example 57, N-((R)-2-(((S)-5,11-Dioxo-10,11-dihydro-1H,3H,5H-spiro[benzo[d]pyr-azolo[1,2-a][1,2]diazepine-2,1′-cyclopropan]-10-yl)carbamoyl)butyl)-4-(trifluoromethyl) thiazole-5-carboxamide]
12 | 220 | CC[C@H](CNC(=O)c1sc(-c2cc(C)no2)nc1C)C(=O)N[C@@H]1C(=O)N2CCCN2Cc2ccccc21 [Example 20, 4-Methyl-2-(3-methylisoxazol-5-yl)-N-((R)-2-(((S)-11-oxo-2,3,10,11-tetrahydro-1H,5H-benzo[d]pyrazolo [1,2-a][1,2]diazepin-10-yl)carbamoyl)butyl) thiazole-5-carboxamide]
2 | 3 | C[C@H](CC(=O)Nc1cc(C(=O)Nc2ccccc2F)nn1C)C(=O)N[C@@H]1C(=O)N2CCCN2Cc2ccccc21 [Example 109, (R)—N^4-(3-((2-fluorophenyl)carbamoyl)-1-methyl-1H-pyrazol-5-yl)-2-methyl-N^1—((S)-11-oxo-2,3,10,11-tetrahydro-1H,5H-benzo[d]pyrazolo[1,2-a][1,2]diazepin-10-yl)succinamide]
139 | 28 | Cc1cccc2nc(C[C@@H](C)C(=O)N[C@@H]3C(=O)N4CCCN4Cc4ccccc43)[nH]c12 [Example 112, (R)-2-methyl-3-(7-methyl-1H-benzo[d]imidazol-2-yl)-N-((S)-11-oxo-2,3,10,11-tetrahydro-1H,5H-benzo[d]pyrazolo[1,2-a][1,2]diazepin-10-yl)propanamide]
7 | 10 | Cc1nc(-c2cncc(F)c2)sc1NC(=O)C[C@@H](C)C(=O)N[C@@H]1C(=O)N2CCCN2Cc2ccccc21 [Example 79, (R)-N^4-(2-(5-fluoropyridin-3-yl)-4-methylthiazol-5-yl)-2-methyl-N^1-((S)-11-oxo-2,3,10,11-tetrahydro-1H,5H-benzo[d]pyrazolo [1,2-a][1,2]diazepin-10-yl)succinamide]
29 | 84 | CC[C@H](CNC(=O)c1scnc1C)C(=O)N[C@@H]1C(=O)N2CCCN2Cc2ccccc21 [Example 29, 4-Methyl-N-((R)-2-(((S)-11-oxo-2,3,10,11-tetrahydro-1H,5H-benzo[d]pyrazolo [1,2-a][1,2]diazepin-10-yl)carbamoyl)butyl) thiazole-5-carboxamide]
686 | 691 | C[C@H](CNC(=O)c1ccnn1C)C(=O)N[C@@H]1C(=O)N2CCCN2Cc2ccccc21 [Example 61, 1-methyl-N-((R)-2-methyl-3-oxo-3-(((S)-11-oxo-2,3,10,11-tetrahydro-1H,5H-benzo[d]pyrazolo [1,2-a][1,2]diazepin-10-yl)amino)propyl)-1H-pyrazole-5-carboxamide]
57 | 42 | O=C(NC[C@H](C(=O)N[C@@H]1C(=O)N2CCCN2C(=O)c2ccccc21)C(F)(F)F)c1sc(-c2ccc(C(F)(F)F)nc2)nc1Cl [Example 40, 4-Chloro-N-((R)-2-(((S)-5,11-dioxo-2,3,10,11-tetrahydro-1H,5H-benzo[d]pyrazolo [1,2-a][1,2]diazepin-10-yl)carbamoyl)-3,3,3-trifluoropropyl)-2-(6-(trifluoromethyl)pyridin-3-yl)thiazole-5-carboxamide]
45 | 34 | CCc1nnsc1C(=O)NC[C@@H](CC)C(=O)N[C@@H]1C(=O)N2CC3(CC3)CN2C(=O)c2ccccc21 [Example 36, N-((R)-2-(((S)-5,11-Dioxo-10,11-dihydro-1H,3H,5H-spiro[benzo[d]pyr-azolo[1,2-a][1,2]diazepine-2,1′-cyclopropan]-10-yl)carbamoyl)butyl)-4-ethyl-1,2,3-thiadiazole-5-carboxamide]
14 | 8 | C[C@H](CC(=O)Nc1cc(-c2cncc(C(F)(F)F)c2)nn1C)C(=O)N[C@@H]1C(=O)N2CCCN2Cc2ccccc21 [Example 98, (R)-2-Methyl-N^4-(1-methyl-3-(5-(trifluoromethyl)pyridin-3-yl)-1H-pyrazol-5-yl)-N^1-((S)-11-oxo-2,3,10,11-tetrahydro-1H,5H-benzo[d]pyrazolo [1,2-a][1,2]diazepin-10-yl)succinamide]
129 | 48 | O=C(NC[C@H](C(=O)N[C@@H]1C(=O)N2CCCN2Cc2c(F)cccc21)C1CC1)c1sc(C2CC2)nc1Cl [Example 54, 4-Chloro-2-cyclopropyl-N-((R)-2-cyclopropyl-3-(((S)-6-fluoro-11-oxo-2,3,10,11-tetrahydro-1H,5H-benzo[d]pyrazolo [1,2-a][1,2]diazepin-10-yl)amino)-3-oxopropyl)thiazole-5-carboxamide]
9 | 40 | C[C@H](CC(=O)Nc1cc(C(=O)NCCC(F)(F)F)nn1C)C(=O)N[C@@H]1C(=O)N2CCCN2Cc2ccccc21 [Example 84, (R)-2-Methyl-N^4-(1-methyl-3-((3,3,3-trifluoropropyl)carbamoyl)-1H-pyrazol-5-yl)-N^1-((S)-11-oxo-2,3,10,11-tetrahydro-1H,5H-benzo[d]pyrazolo [1,2-a][1,2]diazepin-10-yl)succinamide]
54 | 24 | CC[C@H](CNC(=O)c1scnc1Cl)C(=O)N[C@@H]1C(=O)N2CCCN2Cc2ccccc21 [Example 39, 4-Chloro-N-((R)-2-(((S)-11-oxo-2,3,10,11-tetrahydro-1H,5H-benzo[d]pyrazolo [1,2-a][1,2]diazepin-10-yl)carbamoyl)butyl) thiazole-5-carboxamide]
185 | 19 | CCC[C@H](Cc1nc2cc(F)cc(C)c2[nH]1)C(=O)N[C@@H]1C(=O)N2CCCN2Cc2ccccc21 [Example 119, (R)-2-((5-fluoro-7-methyl-1H-benzo[d]imidazol-2-yl)methyl)-N-((S)-11-oxo-2,3,10,11-tetrahydro-1H,5H-benzo[d]pyrazolo[1,2-a][1,2]diazepin-10-yl)pentanamide]
116 | 19 | Cc1cc(F)cc2nc(C[C@@H](C)C(=O)N[C@@H]3C(=O)N4CCCN4Cc4c(F)cccc43)[nH]c12 [Example 118, (R)-N-((S)-6-fluoro-11-oxo-2,3,10,11-tetrahydro-1 H,5H-benzo[d]pyrazolo[1,2-a][1,2]diazepin-10-yl)-3-(5-fluoro-7-methyl-1H-benzo[d]imidazol-2-yl)-2-methylpropanamide]
18 | 23 | Cc1ccc(-c2cc(NC(=O)C[C@@H](C)C(=O)N[C@@H]3C(=O)N4CCCN4Cc4ccccc43)n(C)n2)cn1 [Example 105, (R)-2-Methyl-N^4-(1-methyl-3-(6-methylpyridin-3-yl)-1H-pyrazol-5-yl)-N^1-((S)-11-oxo-2,3,10,11-tetrahydro-1H,5H-benzo[d]pyrazolo [1,2-a][1,2]diazepin-10-yl)succinamide]
12 | 3 | CC[C@H](CNC(=O)c1sc(-c2ccc(C(F)(F)F)nc2)nc1C)C(=O)N[C@@H]1C(=O)N2CCCN2Cc2ccccc21 [Example 18, 4-Methyl-N-((R)-2-(((S)-11-oxo-2,3,10,11-tetrahydro-1H,5H-benzo[d]pyrazolo [1,2-a][1,2]diazepin-10-yl)carbamoyl)butyl)-2-(6-(trifluoromethyl)pyridin-3-yl)thiazole-5-carboxamide]

Reference: patent US20230365571A1, “COMPOUNDS AND COMPOSITIONS AS Sppl2a INHIBITORS” (Novartis AG, priority 2020, published 2023)
